Details: 101.33 kPa, Liquid; for speed of sound: Sing-around technique in a fixed-path interferometer; for mass density: Vibrating tube method

CC(=O)[O-].C[NH2+]CCO [N-methyl-2-hydroxyethylammonium acetate]
Details | mass density [kg/m3] | speed of sound [m/s] | viscosity [mPa·s]
308.15 K | 1094.83 | 1769.3 | –
308.4 K | 1094.68 | 1768.7 | –
308.65 K | 1094.52 | 1768 | –
308.9 K | 1094.37 | 1767.4 | –
309.15 K | 1094.22 | 1766.8 | –
309.4 K | 1094.07 | 1766.1 | –
309.65 K | 1093.92 | 1765.5 | –
309.9 K | 1093.77 | 1764.8 | –
310.15 K | 1093.62 | 1764.2 | –
310.4 K | 1093.47 | 1763.6 | –
310.65 K | 1093.31 | 1762.9 | –
310.91 K | 1093.16 | 1762.3 | –
311.16 K | 1093.01 | 1761.7 | –
311.4 K | 1092.85 | 1761 | –
311.65 K | 1092.7 | 1760.4 | –
311.91 K | 1092.55 | 1759.7 | –
312.16 K | 1092.4 | 1759.1 | –
312.41 K | 1092.24 | 1758.5 | –
312.66 K | 1092.09 | 1757.8 | –
312.91 K | 1091.94 | 1757.2 | –
313.15 K | – | – | 46.16
313.16 K | 1091.78 | 1756.5 | –
313.4 K | 1091.63 | 1755.9 | –
313.66 K | 1091.48 | 1755.2 | –
313.9 K | 1091.32 | 1754.6 | –
314.15 K | 1091.17 | 1753.9 | –
314.4 K | 1091.02 | 1753.3 | –
314.65 K | 1090.87 | 1752.6 | –
314.9 K | 1090.71 | 1752 | –
315.15 K | 1090.56 | 1751.3 | –
315.41 K | 1090.41 | 1750.7 | –
315.65 K | 1090.26 | 1750 | –
315.91 K | 1090.1 | 1749.4 | –
316.16 K | 1089.95 | 1748.7 | –
316.41 K | 1089.79 | 1748.1 | –
316.66 K | 1089.64 | 1747.4 | –
316.91 K | 1089.49 | 1746.8 | –
317.16 K | 1089.33 | 1746.1 | –
317.4 K | 1089.18 | 1745.5 | –
317.66 K | 1089.02 | 1744.8 | –
317.91 K | 1088.87 | 1744.2 | –
318.15 K | – | – | 37.28
318.16 K | 1088.72 | 1743.5 | –
318.41 K | 1088.56 | 1742.8 | –
318.65 K | 1088.41 | 1742.2 | –
318.9 K | 1088.26 | 1741.5 | –
319.16 K | 1088.1 | 1740.9 | –
319.41 K | 1087.94 | 1740.2 | –
319.65 K | 1087.79 | 1739.6 | –
319.91 K | 1087.64 | 1738.9 | –
320.16 K | 1087.48 | 1738.2 | –
320.41 K | 1087.33 | 1737.6 | –
320.65 K | 1087.17 | 1736.9 | –
320.91 K | 1087.02 | 1736.3 | –
321.15 K | 1086.86 | 1735.6 | –
321.41 K | 1086.71 | 1735 | –
321.66 K | 1086.55 | 1734.3 | –
321.9 K | 1086.4 | 1733.6 | –
322.15 K | 1086.24 | 1733 | –
322.41 K | 1086.08 | 1732.3 | –
322.65 K | 1085.93 | 1731.7 | –
322.91 K | 1085.77 | 1731 | –

— the NIST ThermoML archive (doi:10.1021/je900550v)
